Values quoted from earlier work, collected in patent US6277963A, “Antibodies directed toward extracellular signal-related kinases” (Regeneron Pharmaceuticals, Inc., priority 1997, dated 2001).

Biological target: MAP2 kinase (partially purified enzyme) (Mus musculus, UniProt P63085)
Sequence (P63085 whole entry): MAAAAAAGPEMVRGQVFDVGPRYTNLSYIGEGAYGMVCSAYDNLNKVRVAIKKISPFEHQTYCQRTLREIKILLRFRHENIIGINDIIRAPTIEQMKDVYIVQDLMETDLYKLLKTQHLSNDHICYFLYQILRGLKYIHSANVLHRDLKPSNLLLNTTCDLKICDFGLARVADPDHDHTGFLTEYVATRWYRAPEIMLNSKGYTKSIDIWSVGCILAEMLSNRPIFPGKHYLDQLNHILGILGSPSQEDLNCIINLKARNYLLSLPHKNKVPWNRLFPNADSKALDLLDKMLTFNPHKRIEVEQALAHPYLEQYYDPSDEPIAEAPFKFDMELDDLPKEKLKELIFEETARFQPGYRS

utilization of GTP | SMILES | Km (read-out: Km for ATP) [µM]
– | Nc1ncnc2c1ncn2[C@@H]1O[C@H](COP(=O)(O)OP(=O)(O)OP(=O)(O)O)[C@@H](O)[C@H]1O [ATP] | 7
did not appear to utilize GTP | Nc1nc2c(ncn2[C@@H]2O[C@H](COP(=O)(O)OP(=O)(O)OP(=O)(O)O)[C@@H](O)[C@H]2O)c(=O)[nH]1 [GTP] | –
